Data reported in patent US20240076347A1, “METHODS FOR PREVENTING FUNGAL INFECTIONS” (Cidara Therapeutics, Inc., priority 2016, published 2024).
≈ marks a conversion by molar mass, not a printed value. Where “and” joins values, the source holds several entries; their conditions need not be identical. Equal values may be shown once. Entries after “also recorded” stand apart in the source; their conditions may differ. Read-outs that look alike come from different tables or passages of the source. Numbered stars: 1 amine (or outer) side, 2 acyl side, 3 side chain; on linkers, the order of the positions; unused ones are H or OH. Bridge positions count the residues as written; N and C are the ends. Square brackets hold non-standard residues; d marks the D form. Peptide text beside a SMILES is read from it. * marks the point of attachment. pTerphenylCO(4''-OnC5H11) = CCCCCOc1ccc(-c2ccc(-c3ccc(C(=O)*)cc3)cc2)cc1; Orn(4R-OH,5R-OH) = O=C([C@H](C[C@@H](O)[C@@H](O)N[*:3])N[*:1])[*:2]; hTyr(3S-OH,4S-OH) = N[C@H](C(=O)O)[C@H](O)[C@@H](O)c1ccc(O)cc1; Pro(3S-OH,4S-Me) = C[C@H]1CN[C@H](C(=O)O)[C@H]1O; Hyp = O=C(O)[C@@H]1C[C@@H](O)CN1

Tests used:
[1] = system: C. glabrata; assay: In vitro susceptibility testing (CLSI M27-A3); assay type: cell-based, Candida glabrata; settings: Nakaseomyces glabratus, 24 h
Description: (§1) Strains. Ten clinical Candida strains were used for the in vivo treatment studies, including four C. albicans, three C. glabrata, and three C. parapsilosis strains (Table 18). This group was selected to encompass phenotypic variability in susceptibility to triazoles and echinocandins and based on similar fitness in the animal model as defined by the amount of growth in control animals over 24 h. The organisms were maintained, grown, and quantified on Sabouraud's dextrose agar (SDA) plates.
(§2) In vitro susceptibility testing. All isolates were tested in accordance with the standards in CLSI document M27-A3. The MICs were determined visually after 24 h of incubation as the lowest concentration of drug that causes a significant diminution (≥50%) of growth compared to controls. MICs were determined on three separate occasions in duplicate.

[2] = system: C. parapsilosis; assay: In vitro susceptibility testing (CLSI M27-A3); assay type: cell-based, Candida parapsilosis; settings: Lodderomyces parapsilosis, 24 h
Description: as §1, §2

[3] = system: C. albicans; assay: In vitro susceptibility testing (CLSI M27-A3); assay type: cell-based; settings: Candida albicans, 24 h
Description: as §1, §2

[4] = system: A. fumigatus AF293; assay: Pulmonary aspergillosis in neutropenic ICR mice (Examples 14, 15), prophylaxis, survival; assay type: in vivo, Aspergillus fumigatus
Description: Pulmonary aspergillosis: ICR mice (10/grp) were made neutropenic by cyclophosphamide on Day −4 (150 mg/kg), and CPM/cortisone on Day −1 (150/175 mg/kg). Intranasal infection with A. fumigatus AF293 (10^5 CFU/mouse) on Day 0. Prophylaxis CD101 as a single dose (IP; 5, 10, 20 mg/kg) or posaconazole (PO; 2 and 10 mg/kg) 1 day prior to infection. Survival monitored for 10 days.
Pulmonary aspergillosis: ICR mice (10/grp) were made neutropenic by cyclophosphamide on Day −4 (150 mg/kg), and cyclophosphamide/cortisone was given on Day −1 (150/175 mg/kg). Intranasal challenge with A. fumigatus AF293 (10^5 CFU/mouse) was initiated on Day 0 and prophylaxis with CD101 as a single dose (IP; 5, 10, 20 mg/kg) or posaconazole (PO; 2 and 10 mg/kg) was started 1 day prior to infection. Survival was monitored for 10 days.

[5] = system: Aspergillus fumigatus strain AF293; assay: Murine model of pulmonary aspergillosis (Example 16), survival and lung burden; assay type: in vivo; settings: for Group Geometric mean / Log10 Group Geometric mean / Log10 reduction from vehicle control: terminal lung burden
Description: Animal strain and housing. Mice used in these studies were supplied by Charles River (Margate UK) and were specific pathogen free. The strain of mice used was ICR (also known as CD1 Mice) which is a well characterized outbred murine strain. Male mice were 11-15 g on receipt and allowed to acclimatize for at least 7 days.
Immunosuppression. Mice were immunosuppressed on Day −4 with 150 mg/kg cyclophosphamide administered intraperitoneally (IP), and on Day −1 with 150 mg/kg cyclophosphamide IP and 175 mg/kg cortisone acetate administered subcutaneously (SC). To prevent bacterial infection due to the immunosuppression mice were given once daily 50 mg/kg ceftazidime.
Preparation of Organism and Infection. A. fumigatus strain AF293 inoculum was prepared from spore cultures grown on Sabouraud Dextrose agar (SAB) containing 50 μg/mL chloramphenicol (SABC) in vented tissue culture flasks. Following incubation for 7-10 days at 30° C., spore cultures were washed in sterile phosphate buffered saline (PBS) containing 0.05% Tween 80. Spore count was determined using a haemocytometer and spores were diluted in PBS to ˜6.9×10^6 CFU/mL. Inoculum concentration was confirmed by quantitative culture onto SABC agar.
Neutropenic mice lungs were infected with 0.04 mL (0.02 mL/nare) of ˜4.17×10^6 CFU/mL (˜1.67×10^5 CFU/mouse) of A. fumigatus AF293 by intranasal (IN) instillation under temporary 2.5% isoflurane induced anesthesia.
Preparation of Test Articles. Micafungin (Mycamine, Astellas) was provided as a 50 mg vial (Lot 02323002, expiry 08/2017) and was prepared as per manufacturer's instructions by adding 5 mL saline for injection (SFI) directly into the vial to make up a 10 mg/mL stock solution. This solution was then diluted further in SFI to a working concentration of 0.5 mg/mL. […] It was prepared fresh once and stored at 4° C. until required.
Posaconazole (Noxafil 40 mg/mL oral suspension, Merck Sharp & Dohme Limited) was provided as a 40 mg/mL oral suspension (Lot N00801, expiry 04/2019). This suspension was then diluted further in water for infection (WFI) to a working concentration of 0.2 and 1 mg/mL. The suspension was administered orally (PO) at 10 mL/kg for 2 and 10 mg/kg doses respectively, was prepared fresh once and stored at 4° C. until required.
Test article CD101 stock was prepared at 6 mg/mL in 10% DMSO/1% Tween 20 diluent. A clear non particulate solution was obtained following gentle mixing. […] All doses were administered IP at 10 mL/kg. The study doses were kept at 4° C. until required.
Treatment. For this study, treatments were initiated on Day 1 pre infection according to treatment groups outlined in Table 22. A total of 36 mice (6/treatment group) were used in the study.
Endpoints. The primary endpoint for this study was survival within agreed ethical limits (>20% weight loss, severe hypothermia <34° C., inability to reach food or drink, severe hunching). Mice were monitored by daily weight measurements with observations as frequently as clinical condition required.
Mice presenting with severe clinical deterioration were humanely euthanized using an overdose of pentobarbitone administered by IP injection following clinical assessment and the time of death was recorded. Animal carcasses were stored at −20° C. before quantitative assessment of burden.
Ten days post infection all surviving animals were weighed and had their clinical condition assessed prior to being euthanized. Final survival numbers were recorded and analysed as described below and carcasses frozen at −20° C. prior to further processing.
Lung burden. A secondary endpoint for the study was terminal lung tissue burden. Immediately following confirmation of death, carcasses were frozen at −20° C. prior to tissue dissection and processing. The frozen carcasses were thawed at room temperature, the lungs removed and placed into pre-weighed bead-beating tubes containing 2 mL of PBS and subjected to mechanical disruption. […]

Q: With `CCCCCOc1ccc(-c2ccc(-c3ccc(C(=O)N[C@H]4C[C@@H](O)[C@@H](O)NC(=O)[C@@H]5[C@@H](O)[C@@H](C)CN5C(=O)[C@H]([C@@H](C)O)NC(=O)[C@H]([C@H](O)[C@@H](O)c5ccc(O)cc5)NC(=O)[C@@H]5C[C@@H](O)CN5C(=O)[C@H]([C@@H](C)O)NC4=O)cc3)cc2)cc1` [Anidulafungin, anidulafungin, reference compound] ({pTerphenylCO(4''-OnC5H11)}-[Orn(4R-OH,5R-OH)]T[Hyp][hTyr(3S-OH,4S-OH)]T[Pro(3S-OH,4S-Me)]; lactam 1-C) as the compound, how does the MIC ([1]; strain 5592, read-out: MIC) read?
A: Its MIC is 0.06 µg/mL (≈ 0.0526 µM).

Q: What about the MIC ([1]; strain 10956 (FKS2_HS1_F659V)) of the same compound?
A: The MIC was 1 µg/mL (≈ 0.877 µM).

Q: And the MIC ([1]; strain 35315, read-out: MIC)?
A: The MIC was 0.25 µg/mL (≈ 0.219 µM).

Q: What about the MIC ([2]; strain 20423.072) of the same compound?
A: Its MIC is 1 µg/mL (≈ 0.877 µM).

Q: What about the MIC ([2]; strain 20477.048) of the same compound?
A: Its MIC is 2 µg/mL (≈ 1.75 µM).

Q: And the MIC ([2]; strain 20519.069)?
A: The MIC was 4 µg/mL (≈ 3.51 µM).

Q: And the MIC ([3]; strain 98-17)?
A: The MIC was 0.03 µg/mL (≈ 0.0263 µM).

Q: What about the MIC ([3]; strain 98-210) of the same compound?
A: The MIC was 0.015 µg/mL (≈ 0.0132 µM).

Q: And the MIC ([3]; strain 580)?
A: The MIC was 0.015 µg/mL (≈ 0.0132 µM).

Q: And the MIC ([3]; strain K-1)?
A: The MIC was 0.015 µg/mL (≈ 0.0132 µM).

Q: `CC[C@@H]([C@H](C)O)n1ncn(-c2ccc(N3CCN(c4ccc(OC[C@@H]5CO[C@@](Cn6cncn6)(c6ccc(F)cc6F)C5)cc4)CC3)cc2)c1=O` [Posaconazole, posaconazole] was tested. Which survival rate ([4]; 2 mg/kg PO one day prior to infection, 10 days) did it give?
A: Its survival rate is “no survivors”.

Q: And the survival rate ([4]; 10 mg/kg PO one day prior to infection, vs control)?
A: Its survival rate is “statistically-significant increase in survival rate relative to control”.

Q: What about the “Mean Survival” value ([5]; 2 mg/kg PO once, Day −1) of the same compound?
A: The value was 77.5 h.

Q: What about the “Median Survival” value ([5]; 2 mg/kg PO once, Day −1) of the same compound?
A: The value was 69.0 h.

Q: And the “survival time post infection, range” value ([5]; 2 mg/kg PO once, Day −1)?
A: Its value is 69 to 114 h.

Q: And the “survival vs vehicle (conclusion)” value ([5]; 2 mg/kg once one day pre-infection)?
A: Its value is “did not show any improvement in survival”.

Q: What about the “Mean Survival” value ([5]; 10 mg/kg PO once, Day −1) of the same compound?
A: The value was 212 h and 211.5 h.

Q: And the “Median Survival” value ([5]; 10 mg/kg PO once, Day −1)?
A: The value was “could not be estimated; also recorded: cannot estimate”.

Q: What about the “survival time post infection, range” value ([5]; 10 mg/kg PO once, Day −1) of the same compound?
A: Its value is 69 to 240 h.

Q: What about the “mice that survived to the end of the study” value ([5]; 10 mg/kg PO once, Day −1, 6 mice per group, 10 days) of the same compound?
A: The value was 5 mice.

Q: What about the “mice surviving to the end of the study” value ([5]; 10 mg/kg once 1 day pre-infection) of the same compound?
A: Its value is > 80%.

Q: What about the “Group Geometric mean” value ([5]; 2 mg/kg PO Day −1) of the same compound?
A: The value was 1.14 × 10^4 CFU/g.

Q: What about the “Log10 Group Geometric mean” value ([5]; 2 mg/kg PO Day −1) of the same compound?
A: Its value is 4.06 CFU/g.

Q: And the “Log10 reduction from vehicle control” value ([5]; 2 mg/kg PO Day −1)?
A: The value was 0.11 CFU/g.

Q: And the “Group Geometric mean” value ([5]; 10 mg/kg PO Day −1)?
A: The value was 2.75 × 10^3 CFU/g.

Q: And the “Log10 Group Geometric mean” value ([5]; 10 mg/kg PO Day −1)?
A: The value was 3.44 CFU/g.

Q: What about the “Log10 reduction from vehicle control” value ([5]; 10 mg/kg PO Day −1) of the same compound?
A: Its value is 0.73 CFU/g.
